{"source": "patent US7514567B2", "about": "(priority 2003, dated 2009)", "biological_target": "α7 nAChR Subtype (Rattus norvegicus, UniProt Q05941)", "sequence (Q05941 23-502 limits assumed)": "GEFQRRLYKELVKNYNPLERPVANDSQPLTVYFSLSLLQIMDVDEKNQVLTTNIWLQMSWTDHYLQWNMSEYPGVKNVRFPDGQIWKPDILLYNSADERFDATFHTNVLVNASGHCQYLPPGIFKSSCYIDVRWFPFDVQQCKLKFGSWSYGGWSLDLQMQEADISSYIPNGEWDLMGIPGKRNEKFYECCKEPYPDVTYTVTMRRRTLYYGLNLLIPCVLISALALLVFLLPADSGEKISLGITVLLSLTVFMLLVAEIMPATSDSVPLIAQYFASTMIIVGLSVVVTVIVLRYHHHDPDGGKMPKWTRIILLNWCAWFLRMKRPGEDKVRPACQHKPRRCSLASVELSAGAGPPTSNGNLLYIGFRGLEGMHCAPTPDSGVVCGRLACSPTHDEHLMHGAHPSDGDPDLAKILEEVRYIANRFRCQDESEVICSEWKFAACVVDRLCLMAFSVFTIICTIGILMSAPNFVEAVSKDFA", "format": "binding", "settings": "read-out: KD of radioligand from saturation curves"}
{"substance": "[^125I]-α-Bungarotoxin [[^125I]-α-BTX]", "values": [{"measurement": "Kd", "result": 1.67, "unit": "nM"}]}
